Experimental data published in patent US6417202B1, “Pyridylpyrrole compounds useful as interleukin-and TNF antagonists” (Pfizer Inc., priority 1996, dated 2002).

melting point | SMILES
237 to 238 °C | CCC(=O)c1c(-c2ccncc2)[nH]c(-c2ccncc2)c1C [Example 5, 4-Methyl-3-propanoyl-2,5-di(4-pyridyl)-1H-pyrrole]
208 to 210 °C | CC(=O)c1c(-c2ccncc2)[nH]c(-c2ccncc2)c1-c1ccccc1 [Example 7, 3-Acetyl-4-phenyl-2,5-di(4-pyridyl)-1H-pyrrole]
237 to 239 °C | CC(=O)c1c(-c2ccncc2)[nH]c(-c2ccnc3ccccc23)c1C [Example 9, 3-Acetyl-4-methyl-2-(4-pyridyl)-5-(4-quinolyl)-1H-pyrrole]
204 to 205 °C | Cc1c(-c2ccncc2)[nH]c(-c2ccncc2)c1C(=O)OCc1ccccc1 [Example 13, 3-Benzyloxycarbonyl-4-methyl-2,5-di(4-pyridyl)-1H-pyrrole]
99 to 100 °C | CCOC(=O)c1c(-c2ccncc2)[nH]c(-c2ccncc2)c1-c1ccccc1 [Example 18, 3-Ethoxycarbonyl-4-phenyl-2,5-di(4-pyridyl)-1H-pyrrole]
278 to 280 °C | Cc1c(-c2ccncc2)[nH]c(-c2ccncc2)c1C=O [Example 26, 3-Formyl-4-methyl-2,5-di(4-pyridyl)-1H-pyrrole]
241 to 243 °C | CCc1c(-c2ccncc2)[nH]c(-c2ccncc2)c1C(C)=O [Example 28, 3-Acetyl-4-ethyl-2,5-di(4-pyridyl)-1H-pyrrole]
205 to 207 °C | CC(=O)c1c(-c2ccncc2)[nH]c(-c2ccncc2)c1CO [Example 33, 3-Acetyl-4-hydroxymethyl-2,5-di(4-pyridyl)-1H-pyrrole]
258 to 261 °C | Cc1c(-c2ccncc2)[nH]c(-c2ccncc2)c1CO [Example 39, 3-Hydroxymethyl-4-methyl-2,5-di(4-pyridyl)-1H-pyrrole]
212 to 215 °C | Cc1c(-c2ccncc2)[nH]c(-c2ccncc2)c1C(N)=O [Example 40, 3-Aminocarbonyl-4-methyl-2,5-di(4-pyridyl)-1H-pyrrole]
202 to 203 °C | CC(=O)c1c(-c2ccccc2)[nH]c(-c2ccncc2)c1C [Example 46, 3-Acetyl-4-methyl-2-phenyl-5-(4-pyridyl)-1H-pyrrole]
208 to 209 °C | CC(=O)c1c(-c2ccncc2)[nH]c(-c2ccccc2)c1C [Example 47, 3-Acetyl-4-methyl-5-phenyl-2-(4-pyridyl)-1H-pyrrole]
248 to 249 °C | Cc1c(-c2ccncc2)[nH]c2c1C(=O)CCC2 [Example 49, 3-Methyl-4-oxo-2-(4-pyridyl)-4,5,6,7-tetrahydro-1H-indole]
259 to 260 °C | O=C1CCCc2c(-c3ccncc3)[nH]c(-c3ccccc3)c21 [Example 53, 4-Oxo-3-phenyl-1-(4-pyridyl)-4,5,6,7-tetrahydroisoindole]
254 to 255 °C | O=C1CCCc2c(-c3ccccc3)[nH]c(-c3ccncc3)c21 [Example 54, 7-Oxo-3-phenyl-1-(4-pyridyl)-4,5,6,7-tetrahydroisoindole]
256 to 257 °C | Cc1c(-c2ccncc2)[nH]c2c1C(=O)CC(c1ccccc1)C2 (stereo not shown) [Example 56, 3-Methyl-4-oxo-6-phenyl-2-(4-pyridyl)-4,5,6,7-tetrahydro-1H-indole]
193 to 195 °C | CC(=O)c1c(-c2cccc(N)c2)[nH]c(-c2ccncc2)c1C [Example 58, 3-Acetyl-2-(3-aminophenyl)-4-methyl-5-(4-pyridyl)-1H-pyrrole]
116 to 123 °C | CC(=O)c1c(-c2ccc3ccccc3c2)[nH]c(-c2ccncc2)c1C [Example 59, 3-Acetyl-4-methyl-2-(2-naphthyl)-5-(4-pyridyl)-1H-pyrrole]
218 to 220 °C | CC(=O)c1c(-c2cccc3ccccc23)[nH]c(-c2ccncc2)c1C [Example 61, 3-Acetyl-4-methyl-2-(1-naphthyl)-5-(4-pyridyl)-1H-pyrrole]
182 to 186 °C | CC(=O)c1c(-c2cccnc2)[nH]c(-c2ccncc2)c1C [Example 65, 3-Acetyl-4-methyl-2-(3-pyridyl)-5-(4-pyridyl)-1H-pyrrole]
187.5 to 189.5 °C | CC(=O)c1c(-c2ccc(Cl)cc2)[nH]c(-c2ccncc2)c1C [Example 68, 3-Acetyl-2-(4-chlorophenyl)-4-methyl-5-(4-pyridyl)-1H-pyrrole]

The next lines start with the compound.

SMILES | melting point
CCC(=O)c1c(-c2ccncc2)[nH]c(-c2ccncc2)c1CC [Example 3, 4-Ethyl-3-propanoyl-2,5-di(4-pyridyl)-1H-pyrrole] | 209 to 211 °C
CC(=O)c1c(-c2ccncc2)[nH]c(-c2ccncc2)c1C(F)(F)F [Example 4, 3-Acetyl-2,5-di(4-pyridyl)-4-trifluoromethyl-1H-pyrrole] | 250 to 255 °C
CCCCC(=O)c1c(-c2ccncc2)[nH]c(-c2ccncc2)c1C [Example 6, 4-Methyl-2,5-di(4-pyridyl)-3-pentanoyl-1H-pyrrole] | 88 to 89 °C
CC(=O)c1c(-c2ccnc3ccccc23)[nH]c(-c2ccnc3ccccc23)c1C [Example 8, 3-Acetyl-4-methyl-2,5-di(4-quinolyl)-1H-pyrrole] | > 260 °C
CCOC(=O)c1c(-c2ccncc2)[nH]c(-c2ccncc2)c1CC [Example 10, 3-Ethoxycarbonyl-4-ethyl-2,5-di(4-pyridyl)-1H-pyrrole] | 212 to 215 °C
CCOC(=O)c1c(-c2ccncc2)[nH]c(-c2ccncc2)c1C [Example 11, 3-Ethoxycarbonyl-4-methyl-2,5-di(4-pyridyl)-1H-pyrrole] | 206 to 208 °C
C=CCOC(=O)c1c(-c2ccncc2)[nH]c(-c2ccncc2)c1C [Example 14, 3-Allyloxycarbonyl-4-methyl-2,5-di(4-pyridyl)-1H-pyrrole] | 224 to 224.5 °C
Cc1c(-c2ccncc2)[nH]c(-c2ccncc2)c1C(=O)OC(C)C [Example 15, 4-Methyl-3-(1-methylethoxy)carbonyl-2,5-di(4-pyridyl)-1H-pyrrole] | 218 to 221 °C
Cc1c(-c2ccncc2)[nH]c(-c2ccncc2)c1C(=O)OC(C)(C)C [Example 16, 4-Methyl-3-(1,1-dimethylethoxy)carbonyl-2,5-di(4-pyridyl)-1H-pyrrole] | 265 to 267 °C
CCCOC(=O)c1c(-c2ccncc2)[nH]c(-c2ccncc2)c1C [Example 17, 4-Methyl-3-propoxycarbonyl-2,5-di(4-pyridyl)-1H-pyrrole] | 215 to 218 °C
CCCCOC(=O)c1c(-c2ccncc2)[nH]c(-c2ccncc2)c1C [Example 19, 3-Butoxycarbonyl-4-methyl-2,5-di(4-pyridyl)-1H-pyrrole] | 182 to 186 °C
COCCOC(=O)c1c(-c2ccncc2)[nH]c(-c2ccncc2)c1C [Example 20, 3-(2-Methoxyethoxy)carbonyl-4-methyl-2,5-di(4-pyridyl)-1H-pyrrole] | 174 to 177 °C
COCc1c(-c2ccncc2)[nH]c(-c2ccncc2)c1C(=O)OC [Example 24, 3-Methoxycarbonyl-4-methoxymethyl-2,5-di(4-pyridyl)-1H-pyrrole] | 97 to 99 °C
CCOC(=O)c1c(-c2ccncc2)[nH]c(-c2ccncc2)c1-c1ccc([N+](=O)[O-])cc1 [Example 25, 3-Ethoxycarbonyl-4-(4-nitrophenyl)-2,5-di(4-pyridyl)-1H-pyrrole] | 274 to 276 °C
Cc1c(-c2ccncc2)[nH]c(-c2ccncc2)c1S(C)(=O)=O [Example 27, 3-Metha nesulfonyl-4-methyl-2,5-di(4-pyridyl)-1H-pyrrole] | 232 to 234 °C
CCCc1c(-c2ccncc2)[nH]c(-c2ccncc2)c1C(C)=O [Example 29, 3-Acetyl-4-propyl-2,5-di(4-pyridyl)-1H-pyrrole] | 111 to 113 °C
CCCCc1c(-c2ccncc2)[nH]c(-c2ccncc2)c1C(C)=O [Example 31, 3-Acetyl-4-butyl-2,5-di(4-pyridyl)-1H-pyrrole] | 93 to 95 °C
CC(=O)c1c(C)[nH]c(-c2ccncc2)c1-c1ccncc1 [Example 42, 3-Acetyl-2-methyl-4,5-di(4-pyridyl)1H-pyrrole] | 236 to 239 °C
CC(=O)c1cc(-c2ccncc2)[nH]c1C [Example 43, 3-Acetyl-2-methyl-5-(4-pyridyl)-1H-pyrrole] | 236 to 237 °C
CC(=O)c1c[nH]c(-c2ccncc2)c1C [Example 48, 3-Acetyl-4-methyl-5-(4-pyridyl)-1H-pyrrole] | 210 to 211 °C
CC(=O)c1c(-c2ccc(F)cc2)[nH]c(-c2ccncc2)c1C [Example 51, 3-Acetyl-2-(4-fluorophenyl)4-methyl-5-(4-pyridyl)-1H-pyrrole] | 202 to 203 °C
CC(=O)c1c(-c2cccs2)[nH]c(-c2ccncc2)c1C [Example 52, 3-Acetyl-4-methyl-5-(4-pyridyl)-2-(2-thienyl)-1H-pyrrole] | 231 to 232 °C
Cc1c(-c2ccncc2)[nH]c2c1C(=O)CC(C)(C)C2 [Example 55, 4-Oxo-2-(4-pyridyl)-3,6,6-trimethyl-4,5,6,7-tetrahydro-1H-indole] | 241 to 241.5 °C
CC(=O)c1c(-c2ccc(C=O)cc2)[nH]c(-c2ccncc2)c1C [Example 60, 3-Acetyl-2-(4-formylphenyl)-4-methyl-5-(4-pyridyl)-1H-pyrrole] | 97 to 100 °C
CC(=O)c1c(-c2cccc(Oc3ccc(F)cc3)c2)[nH]c(-c2ccncc2)c1C [Example 62, 3-Acetyl-2-{3-(4-fluorophenoxy)phenyl}-4-methyl-5-(4-pyridyl)-1H-pyrrole] | 158 to 159 °C
CC(=O)c1c(-c2cccc([N+](=O)[O-])c2)[nH]c(-c2ccncc2)c1C [Example 64, 3-Acetyl-4-methyl-2-(3-nitrophenyl)-5-(4-pyridyl)-1H-pyrrole] | 214 to 217 °C
CC(=O)c1c(-c2ccc(F)c(Cl)c2)[nH]c(-c2ccncc2)c1C [Example 66, 3-Acetyl-2-(3-chloro-4-fluorophenyl)-4-methyl-5-(4-pyridyl)-1H-pyrrole] | 206 to 209 °C
C=Cc1[nH]c(-c2ccncc2)c(C)c1C(C)=O [Example 67, 3-Acetyl-4-methyl-5-(4-pyridyl)-2-vinyl-1H-pyrrole] | 150 to 155 °C
